Test results from patent US20160175802A1, “METHOD FOR MAKING A GAS FROM AN AQUEOUS FLUID,PRODUCT OF THE METHOD, AND APPARATUS THERFOR” (priority 2007, published 2016).

What was measured:
[1] = Storage of SG Gas in water; type: physicochemical; settings: polarized water with SG Gas treatment
Excerpt: Storage of SG Gas in Water: The resulting polarized water with SG Gas treatment remains stable and can be stored for 2 years or more. The actual maximum storage time has yet to be observed but in theory, SG Gas should remain permanently stable in the water.

[2] = Total Dissolved Solids after infusion; type: physicochemical; settings: after infusion of SG Gas into distilled water for approximately 11 minutes (start 0.33 ppm)
Excerpt: The resulting ionized or polarized water (“SG Gas-infused Water”) clings longer to a magnet when compared to that of regular water. Absorption over time or saturation graphs to monitor changes in the water properties infused with SG Gas including capacitance levels may be prepared. […] Other measurement: Total Dissolved Solids (TDS) dropped from a start of 0.33 ppm in untreated distilled water to a finish of 0.17 ppm after infusion of SG Gas into distilled water for a period of approximately 11 minutes. A Fluke 189True RMS Multimeter was used to measure drop in capacitance.

[3] = tested on: goldfish; test: Fish growth in home aquariums; type: in vivo; settings: SG Gas bubbled into aquarium for thirty days vs air
Excerpt: Fish Growth: Two home aquariums were used to hold two respective groups of goldfish. SG Gas was bubbled into one aquarium and the second with air for a period of thirty days.

[4] = pH test; type: physicochemical; settings: distilled water infused with SG Gas (distilled water pH 6.8)
[5] = SG Gas under pressure; type: physicochemical
Excerpt: In an exemplary procedure for compression, SG Gas is discharged from the apparatus into a hose with a compressor attached. We use a Whirlwind Compressor, Model 2200-2 HPE, manufactured by High Pressure Eng. Co. Inc. A canister with pressure gauges is used to fill the chamber with SG Gas, using a hose to transport the SG Gas from the apparatus and compressor into the canister. We use an empty oxygen tank that has been vacuumed to remove any residual oxygen and water. The empty and vacuumed oxygen tank with pressure valve has a manufacturer name of White Martins, ABRE with dimensions of 23″ diameter and 19″ height. SG Gas is placed under pressure in the compression chamber up to and beyond 1,000 psi. for storage of SG Gas.
Analytical Testing and Observations of SG Gas Under pressure Maximum Pressure: SG Gas imploded when pressures exceeded 1,600 psi.
Safe Pressurization: SG Gas remains safe and stable at pressures around 1,000 psi for over 30 days. SG Gas should remain stable under pressure indefinitely, at least for a sufficient period of time to allow said gas to be utilized at time 30-60 days after generation.

hydroxyhydrogen [SG Gas]
storage time over which water remains stable [1]: ≥ 2 years
Total Dissolved Solids (TDS) [2]: 0.17 ppm
algae growth in aquarium tank [3]: less algae growth
growth of goldfish compared with air-aerated aquarium [3]: at least 15%
pH [4]: 7.6
Maximum Pressure: pressure above which SG Gas imploded [5]: exceeded 1,600 psi
time safe and stable under pressure ([5]; pressures around 1,000 psi): over 30 days
